System: 695427-040-R-J1-PDC complex spheroid viability
Assay: Anticancer human tumor 695427-040-R-J1-PDC patient-derived colon adenocarcinoma cell line growth inhibition [POLQ]
Settings: for IC50: curve of first compound; for viability, T/C: stronger effect = lower value
Protocol: Multicellular complex tumor spheroid response to Polymerase (POL) inhibitors (novobiocin, ART-558, RP6685) in combination with a variety of drugs and investigational agents in selected tumor cell lines
The POL inhibitors (novobiocin, ART-558, and RP6685) were evaluated both individually and in combination with standard of care and investigational anticancer small molecules within a complex spheroid model of solid tumors. . Complex spheroids include a stromal component modeled by human endothelial cells (HUVEC) and fibroblasts modeled by human mesenchymal stem cells (MSCs). The concentration ranges selected for each drug and investigational agent were based upon clinically achievable concentrations if the clinical Cmax of the agent was known.
Compounds. The drugs and investigational agents: novobiocin (NSC847541), ART-558 (NSC835418), RP-6685 (NSC848927), peposertib (NSC802822), ceralasertib (NSC780249), elimusertib (NSC800525), camonsertib (NSC841442), AZD-1390 (NSC803789), olaparib (NSC753686), talazoparib (NSC767125), rucaparib (NSC756644), sotorasib (NSC818433), MRTX-1133 (NSC836407), SN-38 (NSC673596), topotecan (NSC609699), epotoside (NSC141540), doxorubicin (NSC123127), gemcitabine (NSC613327), 5-fluorouracil (NSC19893), paclitaxel (NSC125973), vemurafenib (NSC761431), MSA-2 (NSC828583), SN-011 (NSC837082), adavosertib (NSC754352), prexasertib (NSC758257), carboplatin (NSC241240) and oxaliplatin (NSC266046), were obtained from the National Cancer Institute (NCI) Developmental Therapeutics Program Chemical Repository (21). The FDA-approved anticancer drug set is available from the Developmental Therapeutics Program at https://dtp.cancer.gov/organization/dscb/obtaining/. […] The stock solutions were prepared in dimethyl sulfoxide (DMSO, Sigma-Aldrich, St. Louis, MO, cat. D2650), except for the platinum compounds which were prepared in saline (Quality Biological, Gaithersburg, MD, cat. 114-055-101), at 800-fold the tested concentration and stored at -70 degrees C prior to their use. All drugs and investigational agents were tested over a range starting from a high concentration at or near the clinical Cmax and decreasing in half-log increments. If the clinical Cmax for an agent had not been determined, the highest concentration tested was 10 microM, except for SN-38, which was tested at a high concentration of 1 microM.
Cell Culture. All cells were maintained in an incubator at 37 degrees C and 5% CO2 with 95% humidity. The PDC lines were cultured according to standard operating procedures established by the NCI PDMR (https://pdmr.cancer.gov). Table 3 of the manuscript, lists the cell lines along with the number of the three cell types plated to form the mct-spheroids and media for tumor cell growth. After thawing, all PDC lines, except 997537-175-T-J1-PDC and 415267-285-R-J2-PDC, were cultured in Matrigel-coated flasks prepared with a working solution of 1X Ham's F-12 nutrient mix, without supplementation (Thermo Fisher Scientific, cat. 11765054), 100 U/mL penicillin-streptomycin (Thermo Fisher Scientific, cat. 15140122), and 2.5% Matrigel (Corning Inc., Corning, NY, cat. 354248) for the first three passages. The two PDC lines 997537-175-T-J1-PDC and 415267-285-R-J2-PDC were cultured on uncoated flasks. The 857933-349-R-J2-PDC line was cultured in 6C/Colon 1B media containing advanced DMEM/F-12 (Thermo Fisher Scientific, cat. 12634028), 10 mM HEPES (Thermo Fisher Scientific, cat. 15630080), 1X GlutaMAX supplement (Thermo Fisher Scientific, cat. 35050061), 0.1 mg/mL primocin (InvivoGen, San Diego, CA, cat. ant-pm-2), 10% defined fetal bovine serum, heat inactivated (HyClone Laboratories Inc., Logan, UT, cat. SH30070.03HI), 50% L-WRN conditioned media (ATCC, cat. CRL-3276), 1.25 mM N-Acetyl-L-cysteine (Sigma-Aldrich, cat. A9165), 10 mM nicotinamide (Sigma-Aldrich, cat. N0636), 1X B-27 supplement (Thermo Fisher Scientific, cat. 17504044), 1X N-2 supplement (Thermo Fisher Scientific, cat. […]

[1] = second compound 0.0316 µM, first compound 0.0316 µM
[2] = second compound 0.0316 µM, first compound 0.1 µM
[3] = second compound 0.0316 µM, first compound 0.316 µM
[4] = second compound 0.0316 µM, first compound 1 µM
[5] = second compound 0.1 µM, first compound 0.0316 µM
[6] = second compound 0.1 µM, first compound 0.1 µM
[7] = second compound 0.1 µM, first compound 0.316 µM
[8] = second compound 0.1 µM, first compound 1 µM
[9] = second compound 0.316 µM, first compound 0.0316 µM
[10] = second compound 0.316 µM, first compound 0.1 µM
[11] = second compound 0.316 µM, first compound 0.316 µM
[12] = second compound 0.316 µM, first compound 1 µM
[13] = second compound 1 µM, first compound 0.0316 µM
[14] = second compound 1 µM, first compound 0.1 µM
[15] = second compound 1 µM, first compound 0.316 µM
[16] = second compound 1 µM, first compound 1 µM
[17] = second compound 3.16 µM, first compound 0.0316 µM
[18] = second compound 3.16 µM, first compound 0.1 µM
[19] = second compound 3.16 µM, first compound 0.316 µM
[20] = second compound 3.16 µM, first compound 1 µM
[21] = second compound 10 µM, first compound 0.0316 µM
[22] = second compound 10 µM, first compound 0.1 µM
[23] = second compound 10 µM, first compound 0.316 µM
[24] = second compound 10 µM, first compound 1 µM
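Also: spheroids exposed to compounds for seven days.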
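For viability, T/C in this document: 100% = DMSO vehicle control viability.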

In the case of `C=CCn1c(=O)c2cnc(Nc3ccc(N4CCN(C)CC4)cc3)nc2n1-c1cccc(C(C)(C)O)n1` + COC1C(OC(N)=O)C(O)C(Oc2ccc3c(O)c(NC(=O)c4ccc(O)c(CC=C(C)C)c4)c(=O)oc3c2C)OC1(C)C, the IC50 (second compound 0.0316 µM) is reported as > 1 µM, the IC50 (second compound 0.1 µM) is reported as > 1 µM and the IC50 (second compound 0.316 µM) is reported as > 1 µM. The IC50 (second compound 1 µM) was > 1 µM, the IC50 (second compound 3.16 µM) was > 1 µM and the IC50 (second compound 10 µM) was > 1 µM. The viability, T/C (second compound 0.0316 µM, first compound 0.00316 µM) was 98.2%, the viability, T/C (second compound 0.0316 µM, first compound 0.01 µM) was 91.8% and the viability, T/C [1] was 110%. The viability, T/C [2] was 95.3%, the viability, T/C [3] was 95.5% and the viability, T/C [4] was 82.2%. The viability, T/C (second compound 0.1 µM, first compound 0.00316 µM) was 103%, the viability, T/C (second compound 0.1 µM, first compound 0.01 µM) was 103% and the viability, T/C [5] was 96.3%. It also gave a viability, T/C [6] of 102%, a viability, T/C [7] of 98.4% and a viability, T/C [8] of 80.3%. For the same compound, the viability, T/C (second compound 0.316 µM, first compound 0.00316 µM) was 105%, the viability, T/C (second compound 0.316 µM, first compound 0.01 µM) was 114% and the viability, T/C [9] was 103%. It also gave a viability, T/C [10] of 105%, a viability, T/C [11] of 91.8% and a viability, T/C [12] of 70.9%. The viability, T/C (second compound 1 µM, first compound 0.00316 µM) was 99.2%, the viability, T/C (second compound 1 µM, first compound 0.01 µM) was 98.5% and the viability, T/C [13] was 101%. For the same compound, the viability, T/C [14] was 96.3%, the viability, T/C [15] was 97.3% and the viability, T/C [16] was 72.4%. For the same compound, the viability, T/C (second compound 3.16 µM, first compound 0.00316 µM) was 92.3%, the viability, T/C (second compound 3.16 µM, first compound 0.01 µM) was 102% and the viability, T/C [17] was 106%. The viability, T/C [18] was 97.4%, the viability, T/C [19] was 95.3% and the viability, T/C [20] was 79.1%. The viability, T/C (second compound 10 µM, first compound 0.00316 µM) was 97.9%, the viability, T/C (second compound 10 µM, first compound 0.01 µM) was 95% and the viability, T/C [21] was 106%. The viability, T/C [22] was 101%, the viability, T/C [23] was 103% and the viability, T/C [24] was 71.7%.

With `CCCS(=O)(=O)Nc1ccc(F)c(C(=O)c2c[nH]c3ncc(-c4ccc(Cl)cc4)cc23)c1F` + COC1C(OC(N)=O)C(O)C(Oc2ccc3c(O)c(NC(=O)c4ccc(O)c(CC=C(C)C)c4)c(=O)oc3c2C)OC1(C)C the IC50 (second compound 0.0316 µM) was > 10 µM, the IC50 (second compound 0.1 µM) was > 10 µM and the IC50 (second compound 0.316 µM) was > 10 µM. For the same compound, the IC50 (second compound 1 µM) was > 10 µM, the IC50 (second compound 3.16 µM) was > 10 µM and the IC50 (second compound 10 µM) was > 10 µM. The viability, T/C [1] was 102%, the viability, T/C [2] was 102% and the viability, T/C [3] was 98.2%. For the same compound, the viability, T/C [4] was 111%, the viability, T/C (second compound 0.0316 µM, first compound 3.16 µM) was 116% and the viability, T/C (second compound 0.0316 µM, first compound 10 µM) was 80.7%. The viability, T/C [5] was 103%, the viability, T/C [6] was 94.3% and the viability, T/C [7] was 108%. The viability, T/C [8] was 111%, the viability, T/C (second compound 0.1 µM, first compound 3.16 µM) was 107% and the viability, T/C (second compound 0.1 µM, first compound 10 µM) was 78.6%. The viability, T/C [9] was 106%, the viability, T/C [10] was 98.1% and the viability, T/C [11] was 97%. For the same compound, the viability, T/C [12] was 105%, the viability, T/C (second compound 0.316 µM, first compound 3.16 µM) was 118% and the viability, T/C (second compound 0.316 µM, first compound 10 µM) was 88.7%. The viability, T/C [13] was 102%, the viability, T/C [14] was 108% and the viability, T/C [15] was 102%. It also gave a viability, T/C [16] of 109%, a viability, T/C (second compound 1 µM, first compound 3.16 µM) of 107% and a viability, T/C (second compound 1 µM, first compound 10 µM) of 81.7%. For the same compound, the viability, T/C [17] was 110%, the viability, T/C [18] was 107% and the viability, T/C [19] was 100%. For the same compound, the viability, T/C [20] was 106%, the viability, T/C (second compound 3.16 µM, first compound 3.16 µM) was 109% and the viability, T/C (second compound 3.16 µM, first compound 10 µM) was 79.4%. The viability, T/C [21] was 107%, the viability, T/C [22] was 102% and the viability, T/C [23] was 91.8%. For the same compound, the viability, T/C [24] was 113%, the viability, T/C (second compound 10 µM, first compound 3.16 µM) was 116% and the viability, T/C (second compound 10 µM, first compound 10 µM) was 77%.

Reference: PubChem BioAssay AID1963840 (Molecular Pharmacology Branch, DTP, NCI, 2024)
